Results from paper PMC10620772, “Design, synthesis, and biological evaluation of new pyrimidine-5-carbonitrile derivatives as novel anti-cancer, dual EGFR^WT/COX-2 inhibitors with docking studies” (RSC Advances, 2023).

Tests used:
MCF7 = test: NCI60 antitumor screening; assay type: cell-based, human; conditions: 10 μM one-dose
SNB-75 = test: NCI60 antitumor screening; assay type: cell-based, human; conditions: 10 μM one-dose
SW-620 = test: NCI60 antitumor screening; assay type: cell-based, human; conditions: 10 μM one-dose
OVCAR-8 = test: NCI60 antitumor screening; assay type: cell-based, human; conditions: 10 μM one-dose
MDA-MB-468 = test: NCI60 antitumor screening; assay type: cell-based, human; conditions: 10 μM one-dose
HL-60(TB) = test: NCI60 antitumor screening; assay type: cell-based, human; conditions: 10 μM one-dose
OVCAR-5 = test: NCI60 antitumor screening; assay type: cell-based, human; conditions: 10 μM one-dose
MDA-MB-231/ATCC = test: NCI60 antitumor screening; assay type: cell-based, human; conditions: 10 μM one-dose
SK-OV-3 = test: NCI60 antitumor screening; assay type: cell-based, human; conditions: 10 μM one-dose
NCI-H522 = test: NCI60 antitumor screening; assay type: cell-based, human; conditions: 10 μM one-dose
CCRF-CEM = test: NCI60 antitumor screening; assay type: cell-based, human; conditions: 10 μM one-dose
U251 = test: NCI60 antitumor screening; assay type: cell-based, human; conditions: 10 μM one-dose
IGROV1 = test: NCI60 antitumor screening; assay type: cell-based, human; conditions: 10 μM one-dose
SR = test: NCI60 antitumor screening; assay type: cell-based, human; conditions: 10 μM one-dose
NCI60 cell lines panel = test: NCI60 antitumor screening, full panel; assay type: cell-based, human; conditions: 10 μM one-dose, mean over NCI60
Procedure, shortened: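 Single-concentration screen at 10 μM across the NCI60 panel (leukaemia, NSCLC, colon, CNS, melanoma, ovarian, renal, prostate, breast). Results are expressed as percent growth inhibition (GI%) of treated lines.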

A549/ATCC = test: NCI60 antitumor screening; assay type: cell-based, human; conditions: 10 μM one-dose
LOX IMVI = test: NCI60 antitumor screening; assay type: cell-based, human; conditions: 10 μM one-dose
RXF 393 = test: NCI60 antitumor screening; assay type: cell-based, human; conditions: 10 μM one-dose
NCI-H226 = test: NCI60 antitumor screening; assay type: cell-based, human; conditions: 10 μM one-dose
SNB-19 = test: NCI60 antitumor screening; assay type: cell-based, human; conditions: 10 μM one-dose
SN12C = test: NCI60 antitumor screening; assay type: cell-based, human; conditions: 10 μM one-dose
PC-3 = test: NCI60 antitumor screening; assay type: cell-based, human; conditions: 10 μM one-dose
SK-MEL-28 = test: NCI60 antitumor screening; assay type: cell-based, human; conditions: 10 μM one-dose
SF-295 = test: NCI60 antitumor screening; assay type: cell-based, human; conditions: 10 μM one-dose
SF-268 = test: NCI60 antitumor screening; assay type: cell-based, human; conditions: 10 μM one-dose
HOP-92 = test: NCI60 antitumor screening; assay type: cell-based, human; conditions: 10 μM one-dose
NCI-H460 = test: NCI60 antitumor screening; assay type: cell-based, human; conditions: 10 μM one-dose
HCT-116 = test: NCI60 antitumor screening; assay type: cell-based, human; conditions: 10 μM one-dose
NCI-H322M = test: NCI60 antitumor screening; assay type: cell-based, human; conditions: 10 μM one-dose
K-562 = test: NCI60 antitumor screening; assay type: cell-based, human; conditions: 10 μM one-dose
MOLT-4 = test: NCI60 antitumor screening; assay type: cell-based, human; conditions: 10 μM one-dose
SF-539 = test: NCI60 antitumor screening; assay type: cell-based, human; conditions: 10 μM one-dose
OVCAR-4 = test: NCI60 antitumor screening; assay type: cell-based, human; conditions: 10 μM one-dose
TK-10 = test: NCI60 antitumor screening; assay type: cell-based, human; conditions: 10 μM one-dose
HT29 = test: NCI60 antitumor screening; assay type: cell-based, human; conditions: 10 μM one-dose
BT-549 = test: NCI60 antitumor screening; assay type: cell-based, human; conditions: 10 μM one-dose
ACHN = test: NCI60 antitumor screening; assay type: cell-based, human; conditions: 10 μM one-dose
EKVX = test: NCI60 antitumor screening; assay type: cell-based, human; conditions: 10 μM one-dose
CAKI-1 = test: NCI60 antitumor screening; assay type: cell-based, human; conditions: 10 μM one-dose
DU-145 = test: NCI60 antitumor screening; assay type: cell-based, human; conditions: 10 μM one-dose
HCT-15 = test: NCI60 antitumor screening; assay type: cell-based, human; conditions: 10 μM one-dose
HCC-2998 = test: NCI60 antitumor screening; assay type: cell-based, human; conditions: 10 μM one-dose
786–0 = test: NCI60 antitumor screening; assay type: cell-based, human; conditions: 10 μM one-dose
HS 578T = test: NCI60 antitumor screening; assay type: cell-based, human; conditions: 10 μM one-dose
RPMI-8226 = test: NCI60 antitumor screening; assay type: cell-based, human; conditions: 10 μM one-dose
A498 = test: NCI60 antitumor screening; assay type: cell-based, human; conditions: 10 μM one-dose
HOP-62 = test: NCI60 antitumor screening; assay type: cell-based, human; conditions: 10 μM one-dose
UACC-257 = test: NCI60 antitumor screening; assay type: cell-based, human; conditions: 10 μM one-dose
M14 = test: NCI60 antitumor screening; assay type: cell-based, human; conditions: 10 μM one-dose
UO-31 = test: NCI60 antitumor screening; assay type: cell-based, human; conditions: 10 μM one-dose
NCI-H23 = test: NCI60 antitumor screening; assay type: cell-based, human; conditions: 10 μM one-dose
SK-MEL-5 = test: NCI60 antitumor screening; assay type: cell-based, human; conditions: 10 μM one-dose
NCI/ADR-RES = test: NCI60 antitumor screening; assay type: cell-based, human; conditions: 10 μM one-dose
KM12 = test: NCI60 antitumor screening; assay type: cell-based, human; conditions: 10 μM one-dose
OVCAR-3 = test: NCI60 antitumor screening; assay type: cell-based, human; conditions: 10 μM one-dose
MALME-3M = test: NCI60 antitumor screening; assay type: cell-based, human; conditions: 10 μM one-dose
T-47D = test: NCI60 antitumor screening; assay type: cell-based, human; conditions: 10 μM one-dose
MDA-MB-435 = test: NCI60 antitumor screening; assay type: cell-based, human; conditions: 10 μM one-dose
UACC-62 = test: NCI60 antitumor screening; assay type: cell-based, human; conditions: 10 μM one-dose
SK-MEL-2 = test: NCI60 antitumor screening; assay type: cell-based, human; conditions: 10 μM one-dose
COLO 205 = test: NCI60 antitumor screening; assay type: cell-based, human; conditions: 10 μM one-dose
HepG2 = system: HepG2; design: method as in PMID 32115728, PMID 32959865; conditions: antiproliferation; cited from earlier work
[1] = system: active caspase-3 in Colo 205 cells; test: Caspase-3 ELISA; assay type: cell-based, human; conditions: Colo_205, treated at IC50
Description: Among the death proteases, the caspases family of cysteine-dependent aspartate-directed proteases is significant. There are multiple levels where caspase activation and activity are regulated.[43] Caspases are activated during apoptosis, which eventually results in cell death by deactivating a number of signals.[44] One of the crucial survival signals, EGFR, may be the target of caspase activation to ensure the completion of apoptosis.[45] Additionally, it has been reported that activating caspase-3 through COX-2 inhibition enhances apoptosis.[40] Therefore, the impact of the novel compounds on the level of caspase 3 was examined.
(1) Into the antibody coated wells add 100 μl of standard diluent buffer excepts wells wich detected to be the chromogen blank, then add 100 μl. […] (10) Decant liquid from wells then wash, (11) pipette 100 μl of chromogen substrate to all wells, The well fluid will start to become blue. (12) 30 minutes should be spent incubating at room temperature in the dark. (13) To each well, add 100 μl of stop solution. To mix, lightly tap the plate's edge. The well solution should transform from blue to yellow. (14) Read the absorbance of each well using a microtiter plate reader at 450 nm. (15) Draw the standard curve using a curve fitting program. (16) The standard curve can be used to determine the concentrations for unknown samples and controls.[55]

N#Cc1c(Cl)nc(SCc2ccc(F)cc2)nc1-c1ccc(F)cc1 [3b, 4-Chloro-2-((4-fluorobenzyl)thio)-6-(4-fluorophenyl) pyrimidine-5-carbonitrile]
GI% (MCF7): 17.40% | GI% (SNB-75): — (GI% < 10) | GI% (SW-620): — (GI% < 10) | GI% (OVCAR-8): 10.81% | GI% (MDA-MB-468): — (GI% < 10) | GI% (HL-60(TB)): 49.83% | GI% (OVCAR-5): — (GI% < 10) | GI% (MDA-MB-231/ATCC): — (GI% < 10) | GI% (SK-OV-3): — (GI% < 10) | GI% (NCI-H522): 25.38% | GI% (CCRF-CEM): 13.30% | GI% (U251): — (GI% < 10) | GI% (IGROV1): — (GI% < 10) | GI% (SR): — (GI% < 10) | Mean GI% (NCI60 cell lines panel): — (GI% < 10) | GI% (A549/ATCC): — (GI% < 10) | GI% (LOX IMVI): — (GI% < 10) | GI% (RXF 393): 10.29% | GI% (NCI-H226): 28.68% | GI% (SNB-19): — (GI% < 10) | GI% (SN12C): 19.06% | GI% (PC-3): — (GI% < 10) | GI% (SK-MEL-28): — (GI% < 10) | GI% (SF-295): 10.01% | GI% (SF-268): — (GI% < 10) | GI% (HOP-92): 25.21% | GI% (NCI-H460): — (GI% < 10) | GI% (HCT-116): 18.51% | GI% (NCI-H322M): — (GI% < 10) | GI% (K-562): 30.20% | GI% (MOLT-4): 19.35% | GI% (SF-539): — (GI% < 10) | GI% (OVCAR-4): — (GI% < 10) | GI% (TK-10): — (GI% < 10) | GI% (HT29): 13.44% | GI% (BT-549): — (GI% < 10) | GI% (ACHN): — (GI% < 10) | GI% (EKVX): 10.91% | GI% (CAKI-1): — (GI% < 10) | GI% (DU-145): — (GI% < 10) | GI% (HCT-15): 13.00% | GI% (HCC-2998): — (GI% < 10) | GI% (786–0): — (GI% < 10) | GI% (HS 578T): — (GI% < 10) | GI% (RPMI-8226): — (GI% < 10) | GI% (A498): — (GI% < 10) | GI% (HOP-62): — (GI% < 10) | GI% (UACC-257): — (GI% < 10) | GI% (M14): — (GI% < 10) | GI% (UO-31): 12.89% | GI% (NCI-H23): — (GI% < 10) | GI% (SK-MEL-5): 13.82% | GI% (NCI/ADR-RES): 13.45% | GI% (KM12): — (GI% < 10) | GI% (OVCAR-3): — (GI% < 10) | GI% (MALME-3M): — (GI% < 10) | GI% (T-47D): 33.18% | GI% (MDA-MB-435): — (GI% < 10) | GI% (UACC-62): 13.95% | GI% (SK-MEL-2): — (GI% < 10) | GI% (COLO 205): — (GI% < 10)

C=CCSc1nc(Nc2ccccc2)c(C#N)c(-c2ccccc2)n1 [E]
IC50 (HepG2): 3.56 µM

CN[C@@H]1C[C@H]2O[C@@](C)([C@@H]1OC)n1c3ccccc3c3c4c(c5c6ccccc6n2c5c31)C(=O)NC4 [Staurosporine, reference compound]
Caspase 3 [1]: 766.2 ± 10.4 pg·mL
